In US20130274281A1, “METHODS OF TREATING METASTATIC BREAST CANCER WITH 4-IODO-3-NITROBENZAMIDE AND IRINOTECAN” (BiPar Sciences, Inc., priority 2010, published 2013):
pIC50: −log10 of the molar value.

Key:
advanced solid tumors [1] = type: in vivo, human
Procedure: Phase 1: 4-iodo-3-nitrobenzamide is administered intravenously twice weekly (days 1 and 4 of each week) for 3 weeks, followed by a one week 4-iodo-3-nitrobenzamide treatment-free period per one 28-day cycle. Cycle one (day 1 through day 28) is defined as the Safety Phase of the study during which DLTs is assessed and the MTD is determined. The remainder of the study is termed the Maintenance Phase. A subject may participate in this study until he/she experiences a drug intolerance or disease progression. […] For non-measurable disease, best medical practices are used to determine disease progression.
In cohort A (starting dose), a single subject receives 4-iodo-3-nitrobenzamide twice weekly at a dose level of 0.5 mg/kg based on weight measured at screening. If this subject experiences a grade 2 toxicity or higher, then 3 additional subjects would be enrolled in this cohort (only 2 additional subjects would be enrolled in this cohort if the initial subject receives at least 80% of the planned cycle 1 doses). If no additional subjects dosed in this cohort experience a DLT, then dose escalation would occur as below. If no DLT occurs in the initial subject, dose escalation would occur as below. The safety review group has the ability to recommend dose escalation (opening of a new cohort), without expansion with additional subjects, for cases of grade 2 toxicity seen in a single subject that are deemed not to be clinically relevant and/or study treatment-related. Dose Escalation Prior to Grade 2 Toxicity (Potential Cohorts B-J): Until a subject experiences a grade 2 toxicity or higher, one subject would be initially enrolled in all subsequent cohorts at planned 100% dose level increases, with possible cohort expansion as described for cohort A. Safety data are reviewed after 6 doses of 4-iodo-3-nitrobenzamide, and a decision to escalate to the next cohort would be made if no subject experiences a grade 2 toxicity or higher. […]

advanced solid tumors [2] = test: 4-iodo-3-nitrobenzamide in combination with cytotoxic chemotherapeutic agents, safety and best response; type: in vivo, human
Procedure: 42 subjects (advanced solid tumors) were treated with 4-iodo-3-nitrobenzamide in combination with cytotoxic chemotherapeutics agents (topotecan, temozolomide, gemcitabine, or carboplatin/taxol) at 4-iodo-3-nitrobenzamide doses of 1.1, 2.0, 2.8, 4.0 and 5.6 mg/kg.

[3] = system: panel of 63 other kinases, including native c-Ab1; settings: background statement; cited from earlier work
Bcr-ab1 = settings: background statement; read-out: IC50, inhibition of Bcr-ab1 phosphorylation; cited from earlier work
[4] = system: cells not expressing Bcr-Ab1; settings: background statement; cited from earlier work

SMILES	best response measured to date (advanced solid tumors [1]; 24 subjects, monotherapy 0.5-8.0 mg/kg)	dose limiting toxicities (DLTs) (advanced solid tumors [1]; in vivo)	cycles of treatment completed with continued stable disease (advanced solid tumors [1]; one subject, monotherapy)	tolerability (advanced solid tumors [2]; 42 subjects, advanced solid tumors, with topotecan, temozolomide, gemcitabine or carboplatin/taxol, BA 1.1, 2.0, 2.8, 4.0 and 5.6 mg/kg, preliminary safety data)	relation of serious adverse events to study drug (advanced solid tumors [2]; 42 subjects, combination with cytotoxic agents, judged by study investigators)	SAEs attributed to drug (advanced solid tumors [2]; either study (monotherapy, 24 subjects; combination with cytotoxic agents, 42 subjects))	additional toxicities when combined with standard cytotoxic chemotherapy (advanced solid tumors [2]; safety data of both studies)	potentiation of known toxicities of standard chemotherapeutic agents (advanced solid tumors [2]; safety data of both studies)	inhibition of a panel of 63 other kinases, including native c-Ab1 [3]	pIC50 (Bcr-ab1)	toxicity towards cells not expressing Bcr-Ab1 [4]
NC(=O)c1ccc(I)c([N+](=O)[O-])c1 [4-iodo-3-nitrobenzamide]	stable disease present through at least cycle 2 of the study for six subjects	no dose limiting toxicities (DLTs) were observed at any dose level	9 cycles	well tolerated at all dose levels tested	deemed not related to study drug	no SAEs attributed to 4-iodo-3-nitrobenzamide in either study	would not cause any additional toxicities	no evidence that 4-iodo-3-nitrobenzamide would potentiate any known toxicities			
NC(=O)c1cccc(-c2cc(Nc3ccc(OC(F)(F)F)cc3)ncn2)c1 [GNF-2]									does not inhibit	6.57	complete lack of toxicity
